Tests used:
Format in all cases: biochemical
[1] = biological target: T1, MMP-1 (Homo sapiens, UniProt P03956); assay: MMP1 Inhibitor Screening Assay Kit (ab139443), colorimetric thiopeptide substrate, OD412; conditions: for inhibition at 5 µM / remaining activity at 5 µM: T-23~34 at 5 uM; for inhibition at 5 µM: read-out: MMP-1 (%) (inhibitory efficacy, high concentration); for remaining activity at 0.5 µM / remaining activity at 5 µM: remaining enzyme activity; for remaining activity at 0.5 µM: untreated group = 100%, n=2; for remaining activity at 5 µM: read-out: MMP-1 (%) (enzyme activity, high concentration)
T1 construct: purchased Abchem (so in the source)
T1 sequence (P03956 100-269 limits assumed): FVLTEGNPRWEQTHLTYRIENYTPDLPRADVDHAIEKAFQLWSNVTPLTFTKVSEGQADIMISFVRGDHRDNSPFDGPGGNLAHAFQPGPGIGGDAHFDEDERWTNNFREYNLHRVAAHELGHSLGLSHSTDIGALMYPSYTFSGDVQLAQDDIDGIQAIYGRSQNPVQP
Experimental: Enzyme activity (%) at the same concentration was compared with treatment with 0.5 µM MMP-1 activity and 50 nM MMP-2 and MMP-9 activity (n=2). Here, enzyme activity (%) refers to the enzyme activity (%) of the experimental group when the untreated group is considered to have 100% enzyme activity.
To evaluate the effect of the new compound on the enzyme activity, the color change was measured by following the provided protocol using a kit sold by Abchem as follows.
As MMP activity increases, the substrate is decomposed and the OD412 level increases. Therefore, the change in OD412 level (OD value) per minute was measured and the value was obtained according to the enzyme activity calculation formula below. […] (ε=13,600 M^-1cm^-1 above pH 6.0)
New compound enzyme activity(%) = (Vnew compound/Vuntreated group)*100 [formula] V = change in OD value per minute

[2] = biological target: T2, MMP-2 (Homo sapiens, UniProt P08253); assay: MMP2 Inhibitor Screening Assay Kit (ab139446), colorimetric thiopeptide substrate, OD412; conditions: compound at 50 nM; for remaining activity at 0.05 µM: remaining enzyme activity, untreated group = 100%, n=2
T2 construct: purchased Abchem (so in the source)
T2 sequence (P08253 110-660): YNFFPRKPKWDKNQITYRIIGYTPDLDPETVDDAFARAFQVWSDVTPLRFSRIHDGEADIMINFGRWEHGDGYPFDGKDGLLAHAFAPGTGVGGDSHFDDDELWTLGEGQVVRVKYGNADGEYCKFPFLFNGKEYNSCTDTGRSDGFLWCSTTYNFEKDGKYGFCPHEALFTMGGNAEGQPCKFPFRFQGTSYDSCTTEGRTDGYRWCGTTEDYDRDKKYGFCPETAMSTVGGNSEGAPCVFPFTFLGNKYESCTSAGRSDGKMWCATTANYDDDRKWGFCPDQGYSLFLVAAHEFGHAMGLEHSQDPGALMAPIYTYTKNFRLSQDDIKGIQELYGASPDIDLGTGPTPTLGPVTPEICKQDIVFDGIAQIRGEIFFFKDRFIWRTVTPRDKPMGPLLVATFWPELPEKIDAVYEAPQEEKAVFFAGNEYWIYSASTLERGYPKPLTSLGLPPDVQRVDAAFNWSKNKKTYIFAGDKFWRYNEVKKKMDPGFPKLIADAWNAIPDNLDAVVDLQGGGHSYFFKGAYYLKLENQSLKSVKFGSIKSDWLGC
Experimental: Enzyme activity (%) at the same concentration was compared with treatment with 0.5 µM MMP-1 activity and 50 nM MMP-2 and MMP-9 activity (n=2). Here, enzyme activity (%) refers to the enzyme activity (%) of the experimental group when the untreated group is considered to have 100% enzyme activity. To evaluate the effect of the new compound on the enzyme activity, the color change was measured by following the provided protocol using a kit sold by Abchem as follows. […] Therefore, the change in OD412 level (OD value) per minute was measured and the value was obtained according to the enzyme activity calculation formula below. […] (ε=13,600 M^-1cm^-1 above pH 6.0) New compound enzyme activity(%) = (Vnew compound/Vuntreated group)*100 [formula] V = change in OD value per minute

[3] = biological target: T3, MMP-9 (Homo sapiens, UniProt P14780); assay: MMP9 Inhibitor Screening Assay Kit (ab139448), colorimetric thiopeptide substrate, OD412; conditions: compound at 50 nM; for remaining activity at 0.05 µM: remaining enzyme activity, untreated group = 100%, n=2
T3 construct: purchased Abchem (so in the source)
T3 sequence (P14780 94-707): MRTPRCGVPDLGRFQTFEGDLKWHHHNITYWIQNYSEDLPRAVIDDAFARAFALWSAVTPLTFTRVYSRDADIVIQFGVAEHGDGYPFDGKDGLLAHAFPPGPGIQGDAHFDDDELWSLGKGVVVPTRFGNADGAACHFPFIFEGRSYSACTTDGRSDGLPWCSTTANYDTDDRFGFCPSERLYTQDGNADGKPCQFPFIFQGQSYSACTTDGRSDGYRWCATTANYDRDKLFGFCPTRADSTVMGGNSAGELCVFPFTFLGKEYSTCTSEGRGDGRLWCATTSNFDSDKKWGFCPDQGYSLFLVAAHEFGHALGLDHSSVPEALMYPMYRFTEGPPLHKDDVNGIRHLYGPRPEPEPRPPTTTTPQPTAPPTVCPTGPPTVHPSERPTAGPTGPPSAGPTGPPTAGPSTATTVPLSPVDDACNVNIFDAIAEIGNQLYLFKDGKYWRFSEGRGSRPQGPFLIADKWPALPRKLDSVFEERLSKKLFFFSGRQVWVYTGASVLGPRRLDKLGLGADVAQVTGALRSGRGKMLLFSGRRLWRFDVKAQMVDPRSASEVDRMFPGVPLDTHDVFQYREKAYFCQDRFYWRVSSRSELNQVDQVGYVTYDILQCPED
Experimental: Enzyme activity (%) at the same concentration was compared with treatment with 0.5 µM MMP-1 activity and 50 nM MMP-2 and MMP-9 activity (n=2). Here, enzyme activity (%) refers to the enzyme activity (%) of the experimental group when the untreated group is considered to have 100% enzyme activity. To evaluate the effect of the new compound on the enzyme activity, the color change was measured by following the provided protocol using a kit sold by Abchem as follows. Enzyme activity was obtained by comparing absorbance per minute with the untreated group. • MMP1 Inhibitor Screening Assay Kit (ab139443) • MMP2 Inhibitor Screening Assay Kit (ab139446) • MMP9 Inhibitor Screening Assay Kit (ab139448) As MMP activity increases, the substrate is decomposed and the OD412 level increases. Therefore, the change in OD412 level (OD value) per minute was measured and the value was obtained according to the enzyme activity calculation formula below. Here, OD412 means optical density or absorbance at 412 nm. • Thiopeptide (Ac-PLG-[2-mercapto-4-methyl-pentanoyl]-LG-OC2H5) as a chromogenic substrate. • The MMP cleavage site peptide bond was replaced by the thioester bond of the thiopeptide. • Hydrolysis of this bond by MMP generates a sulfhydryl group, which reacts with DTNB [5,5'-dithiobis(2-nitrobenzoic acid), Ellman's reagent] to form 2-nitro-5-thiobenzoic acid. , which can be measured by its absorbance at 412 nm. (ε=13,600 M^-1cm^-1 above pH 6.0) New compound enzyme activity(%) = (Vnew compound/Vuntreated group)*100 [formula] V = change in OD value per minute

[4] = biological target: T2, MMP-2; assay: MMP2 Inhibitor Screening Assay Kit (ab139446), colorimetric thiopeptide substrate, OD412; conditions: T-23~34 at 0.5 uM; for inhibition at 0.5 µM: read-out: MMP-2 (%) (inhibitory efficacy, high concentration); for remaining activity at 0.5 µM: remaining enzyme activity, read-out: MMP-2 (%) (enzyme activity, high concentration)
[5] = biological target: T3, MMP-9; assay: MMP9 Inhibitor Screening Assay Kit (ab139448), colorimetric thiopeptide substrate, OD412; conditions: T-23~34 at 0.5 uM; for inhibition at 0.5 µM: read-out: MMP-9 (%) (inhibitory efficacy, high concentration); for remaining activity at 0.5 µM: remaining enzyme activity, read-out: MMP-9 (%) (enzyme activity, high concentration)

Row | inhibition at 5 µM ([1]; inhibition) [%] | remaining activity at 0.5 µM ([1]; compound at 0.5 uM) [%] | remaining activity at 5 µM [1] [%] | remaining activity at 0.05 µM [2] [%] | remaining activity at 0.05 µM [3] [%] | inhibition at 0.5 µM [4] [%] | remaining activity at 0.5 µM [4] [%] | inhibition at 0.5 µM [5] [%] | remaining activity at 0.5 µM [5] [%] | inhibition at 0.5 µM ([1]; inhibition, compound at 0.5 uM, read-out: MMP-1 (%) at 0.5 uM (inhibitory activity)) [%] | inhibition at 0.05 µM ([2]; inhibition, read-out: MMP-2 (%) at 50 nM (inhibitory activity)) [%] | inhibition at 0.05 µM ([3]; inhibition, read-out: MMP-9 (%) at 50 nM (inhibitory activity)) [%] | SMILES
1 | 26.1 | 100 | 73.9 | 90.5 | 100 | 26.3 | 73.7 | 22.2 | 77.8 | – | – | 0 | CCCc1ccc(S(=O)(=O)N2CCCC2C(=O)NO)cc1 (stereo not drawn) [T-33, N-hydroxy-1-((4-propylphenyl)sulfonyl)pyrrolidine-2-carboxamide]
2 | 58.2 | 100 | 41.8 | 100 | 100 | 37.8 | 62.2 | 30.1 | 69.9 | – | – | – | CC(=O)c1ccc(S(=O)(=O)N2CCCC2C(=O)NO)cc1 (stereo not drawn) [T-34, 1-((4-acetylphenyl)sulfonyl)-N-hydroxypyrrolidine-2-carboxamide]

Second part, the molecule before the results:

Row | SMILES | inhibition at 5 µM ([1]; inhibition) [%] | remaining activity at 0.5 µM ([1]; compound at 0.5 uM) [%] | remaining activity at 5 µM [1] [%] | remaining activity at 0.05 µM [2] [%] | remaining activity at 0.05 µM [3] [%] | inhibition at 0.5 µM [4] [%] | remaining activity at 0.5 µM [4] [%] | inhibition at 0.5 µM [5] [%] | remaining activity at 0.5 µM [5] [%] | inhibition at 0.5 µM ([1]; inhibition, compound at 0.5 uM, read-out: MMP-1 (%) at 0.5 uM (inhibitory activity)) [%] | inhibition at 0.05 µM ([2]; inhibition, read-out: MMP-2 (%) at 50 nM (inhibitory activity)) [%] | inhibition at 0.05 µM ([3]; inhibition, read-out: MMP-9 (%) at 50 nM (inhibitory activity)) [%]
3 | O=C(NO)C1CCCCN1S(=O)(=O)c1ccc(C23CC4CC(CC(C4)C2)C3)cc1 (stereo not drawn) [T-23, 1-((4-((3r,5r,7r)-adamantan-1-yl)phenyl)sulfonyl)-N-hydroxypiperidine-2-carboxamide] | 0 | 100 | 100 | 100 | 100 | 0 | 100 | 0 | 100 | – | – | –
4 | CC(=O)Nc1ccc(S(=O)(=O)N2CCCCC2C(=O)NO)cc1 (stereo not drawn) [T-25, 1-((4-acetamidophenyl)sulfonyl)-N-hydroxypiperidine-2-carboxamide] | 14.2 | 100 | 85.8 | 100 | 100 | 38.3 | 61.7 | 20.6 | 79.4 | 0 | 0 | –
5 | CC(C)(C)c1ccc(S(=O)(=O)N2CCCC2C(=O)NO)cc1 (stereo not drawn) [T-28, 1-((4-(tert-butyl)phenyl)sulfonyl)-N-hydroxypyrrolidine-2-carboxamide] | 0 | 100 | 100 | 100 | 100 | 0 | 100 | 0 | 100 | – | – | –
6 | O=C(NO)C1CCCN1S(=O)(=O)c1ccc(C23CC4CC(CC(C4)C2)C3)cc1 (stereo not drawn) [T-32, 1-((4-((3r,5r,7r)-adamantan-1-yl)phenyl)sulfonyl)-N-hydroxypyrrolidine-2-carboxamide] | 0 | 100 | 100 | 100 | 100 | 7.6 | 92.4 | 11.9 | 88.1 | – | – | –

Reference: patent EP4692062A1, “NOVEL AMIDE-BASED COMPOUND AND COMPOSITION COMPRISING SAME” (Amorepacific Corporation, priority 2023, dated 2024)
